According to patent EP2305660A1, “New thiadiazole derivatives” (Almirall, S.A., priority 2009, dated 2011):
Counter-ions that a name gives are not always drawn.

Target: S1P1 (Homo sapiens, UniProt P21453)
Assay: 35S-GTPyS binding assay (membranes)
Type: biochemical
Conditions: compound 0.1nM-10µM, 0.1nM 35S-GTPyS, 10µM S1P as 100% maximum efficacy, 90 min at room temperature
Procedure: The effect of the compounds was measured using a 35S-GTPyS binding assay. Briefly, membranes were incubated in a buffer containing 20 mM HEPES pH 7.4, 100 mM NaCl, 10 mM MgCl2, 10µM GDP, 50µg/ml saponin and 0.2% fatty acid-free BSA at various concentrations (0.1nM-10µM) and 0.1nM 35S-GTPyS. 10µM S1P was used as 100% maximum efficacy. The assay was incubated for 90 min at room temperature with gentle mixing, and terminated by filtrating the reaction mixture through GF/C filter plates using the Manifold Filtration System. The filters were immediately washed with sodium phosphate pH 7.4 buffer. After drying the filter plates scintillant liquid were added to each well and 35S-GTPyS binding was measured on a Trilux Scintillation Counter.

Chain of S1P1 (P21453 whole entry, species assumed): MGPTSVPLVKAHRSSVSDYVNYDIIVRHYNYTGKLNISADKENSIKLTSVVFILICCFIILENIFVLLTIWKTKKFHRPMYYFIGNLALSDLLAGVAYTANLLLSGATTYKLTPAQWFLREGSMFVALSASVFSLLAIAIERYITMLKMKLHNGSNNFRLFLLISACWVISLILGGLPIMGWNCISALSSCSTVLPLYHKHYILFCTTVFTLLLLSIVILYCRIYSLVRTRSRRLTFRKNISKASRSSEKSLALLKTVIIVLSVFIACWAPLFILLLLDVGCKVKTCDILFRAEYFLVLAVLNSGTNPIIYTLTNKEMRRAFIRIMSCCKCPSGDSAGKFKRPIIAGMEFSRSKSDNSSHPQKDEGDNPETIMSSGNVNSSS

For `CCCCN(C(=O)c1ccccc1F)c1nnc(-c2cc(C)c(OCCN3CC(C(=O)O)C3)c(C)c2)s1` [Example 1, 1-[2-(4-{5-[Butyl(2-fluorobenzoyl)amino]-1,3,4-thiadiazol-2-yl}-2,6-dimethylphenoxy)ethyl]azetidine-3-carboxylic acid], which EC50 is on record?
Its EC50 is 2.5 nM.

With `CCCCN(C(=O)c1ccccc1F)c1nnc(-c2cc(C)c(OCCNCCc3nn[nH]n3)c(C)c2)s1` [Example 12, N-butyl-N-{5-[3,5-dimethyl-4-(2-{[2-(2H-tetrazol-5-yl)ethyl]amino}ethoxy)phenyl]-1,3,4-thiadiazol-2-yl}-2-fluorobenzamide] as the molecule, how does the EC50 read?
Its EC50 is 0.4 nM.

How did the EC50 turn out when `Cc1cc(-c2nnc(N(CC3CC3)C(=O)c3ccccc3Cl)s2)cc(C)c1OCCN1CCC(CC(=O)O)CC1` [Example 23, {1-[2-(4-{5-[(2-chlorobenzoyl)(cyclopropylmethyl)amino]-1,3,4-thiadiazol-2-yl}-2,6-dimethylphenoxy)ethyl]piperidin-4-yl}acetic acid hydrochloride] was run?
The EC50 was 4.1 nM.

With `CCCCN(C(=O)c1ccccc1F)c1nnc(-c2ccc(CN3CC(c4nnn[nH]4)C3)cc2)s1` [Example 30, N-butyl-2-fluoro-N-[5-(4-{[3-(1H-tetrazol-5-yl)azetidin-1-yl]methyl}phenyl)-1,3,4-thiadiazol-2-yl]benzamide] as the molecule, how does the EC50 read?
Its EC50 is 2.3 nM.

How did the EC50 turn out when `CCCCN(C(=O)c1ccccc1F)c1nnc(-c2cc(C)c(OCCNCCn3cncn3)c(C)c2)s1` [Example 31, N-butyl-N-{5-[3,5-dimethyl-4-(2-{[2-(1H-1,2,4-triazol-1-yl)ethyl]amino}ethoxy)-phenyl]-1,3,4-thiadiazol-2-yl}-2-fluorobenzamide] was run?
The EC50 was 4.1 nM.

How did the EC50 turn out when `CCCCN(C(=O)c1ccccc1F)c1nnc(-c2ccc(CNCCO)cc2)s1` [Example 36, N-butyl-2-fluoro-N-[5-(4-{[(2-hydroxyethyl)amino]methyl}phenyl)-1,3,4-thiadiazol-2-yl]benzamide, formate salt] was run?
Its EC50 is 40 nM.

How did the EC50 turn out when `CCCCN(C(=O)Nc1ccccc1)c1nnc(-c2ccc(CN3CC(C(=O)O)C3)cc2)s1` [Example 40, 1-(4-{5-[(anilinocarbonyl)(butyl)amino]-1,3,4-thiadiazol-2-yl}benzyl)azetidine-3-carboxylic acid] was run?
Its EC50 is 70 nM.

How did the EC50 turn out when `CCCCN(C(=O)c1ccccc1F)c1nnc(-c2cc(C)c(OCCN(C)CCO)c(C)c2)s1` [Example 57, N-butyl-2-fluoro-N-[5-(4-{2-[(2-hydroxyethyl)(methyl)amino]ethoxy}-3,5-dimethylphenyl)-1,3,4-thiadiazol-2-yl]benzamide] was run?
The EC50 was 8.5 nM.
